Measured values from patent publication US20120143074A1, “METHOD OF EVALUATING SUITABILITY FOR DRUG THERAPY FOR THE PREVENTION AND TREATMENT OF ANXIETY DISORDERS USING CHOLINERGIC TYPE II THETA RHYTHM” (priority 2009, published 2012).

Legend:
[1] = system: PLC-β4^−/− mice; experiment: Hippocampal EEG theta rhythm in a novel environment after rivastigmine; format: in vivo; details: 0.5 mg/kg i.p.
Protocol: For electrode implantation, the animals were anesthetized with pentobarbital ([…], i.p.) and held in a stereotaxic apparatus with bregma and lambda in the same horizontal plane. Hippocampal EEG recordings were performed using Teflon-coated tungsten electrodes (150 um) implanted in the hippocampal fissure with grounding over the cerebellum (from bregma, 2.0 mm anteroposterior, 1.2 mm mediolateral, and 1.8 mm dorsoventral). The position of the electrodes was verified by light microscopy in Nissl-stained sections according to published protocols. Field potential was amplified (×1,000), bandpass-filtered (bandpass-filtered) (0.1-100 Hz), digitized with 12-bit resolution continuously at 1 kHz sampling, and recorded on a personal computer.
The EEG EEG data were collected in 4 s segments and fast-Fourier transformed (FFT). The data were continuously monitored for movement artifacts, and the recording of each segment was manually verified by the experimenter, blinded to the genotype of the animals. […] To compare the EEG spectral characteristics of hippocampal electrical activities, EEG spectral power in 1 Hz bins was calculated using FFT (Hamming window) of each 4 s epoch. […]
Cholinergic and noncholinergic theta rhythms associated with different behaviors were recorded. […] Non-cholinergic type I theta rhythms were recorded from mice walking in an open chamber or running on a wheel. […]

[2] = system: PLC-β4^−/− mice; experiment: Open-field thigmotaxis test after rivastigmine; format: in vivo; details: 0.5 mg/kg i.p., 60 min before test
Protocol: Open field thigmotaxis was assessed by placing mice in the center of an open field apparatus (40×40×40 cm) under dim lighting. During a 10 min observation period, locomotor activity, number of central crosses, and time spent in the central sector of the open field were recorded and analyzed by PC-based video behavior assay system (TSE, Bad Homburg, Germany). Thigmotaxis index was defined as a ratio of the number of entries into the central part of a testing arena to the locomotor activity. The thigmotaxis index was calculated for each mouse separately and used to calculate means and SEMs for a given experimental group (Treit, D. & Fundytus, M., Pharmacol. Biochem. Behav. 31, 959-962, 1988; Sienkiewicz-Jarosz, H. et al., J Neural Transm. 107, 1403-1412, 2000).
(§1) rivastigmine (Novartis Pharma, Basel, Switzerland), which is a cholinergic enhancer, was dissolved in saline. Animals were injected intraperitoneally (i.p.) with 0.5 mg/kg rivastigmine 60 min before the start of anxiety behavioral test (total volume, 5 ml/kg). […] Both PLC-β4^+/+(WT) and PLC-β4^−/−(KO) mice were randomly assigned to one of the following treatment groups: (1) WT-sham (wild-type mice with intraperitoneal injection of saline; n=10), (2) KO-sham (PLC-β4^−/− mice with intraperitoneal injection of saline; n=10), and (3) KO-rivastigmine (PLC-β4^−/− mice with intraperitoneal injection of rivastigmine; n=10). rivastigmine is a second-generation carbamate-based reversible non-competitive AChE and butyrylChE (BuChE) inhibitor. The reason for choosing the inhibitor is that an inhibitory effect sustains for a long period of time, the inhibitor is specific to the brain (Enz, A. et al., Prog. Brain Res. 98, 431-438, 1993), and the inhibitor selectively increases cholin activity in hippocampus and cortex (Weinstock, M., et al., J. Neural Transm. Suppl. 43, 219-225, 1994).
(§2) Whether rivastigmine administration could also rescue the increased anxiety phenotype of PLC-β4^−/− mice was investigated. To this end, rivastigmine (0.5 mg/kg, i.p.) was injected into PLC-β4^−/− mice and, 60 min after injection, the rivastigmine treated group was subjected to three anxiety behavioral assays.

[3] = system: PLC-β4^−/− mice; experiment: Elevated plus-maze after rivastigmine; format: in vivo; details: 0.5 mg/kg i.p., 60 min before test
Protocol: The elevated plus-maze consists of two open and two enclosed arms of the same size (45^┘ 5 cm) with walls 15 cm high. The arms, constructed of black acrylic, radiate from a central platform (5^┘ 5 cm) to form a plus sign. The entire apparatus was elevated to a height of 30 cm above floor level. Each mouse was placed in the central platform facing one of the open arms. The number of entries into the open and closed arms and the time spent on the open and closed arms were recorded during a 5 min test period (Parks, C. L. et al., Proc. Natl. Acad. Sci. USA 95, 10734-10739; 1998; Ramboz, S. et al., Proc. Natl. Acad. Sci. USA 95, 14476-14481, 1998; Gross, C. et al., Nature 416, 396-400, 2002).
(§3) rivastigmine (Novartis Pharma, Basel, Switzerland), which is a cholinergic enhancer, was dissolved in saline. Animals were injected intraperitoneally (i.p.) with 0.5 mg/kg rivastigmine 60 min before the start of anxiety behavioral test (total volume, 5 ml/kg). […]

[4] = system: PLC-β4^−/− mice; experiment: Light/dark transition test after rivastigmine; format: in vivo; details: 0.5 mg/kg i.p., 60 min before test
Description: The apparatus used for the light/dark transition test consisted of a cage (25×40×20 cm) divided into two compartments by a black partition containing a small opening that allows the mouse to move from one compartment to the other. One compartment, comprising two-thirds of the surface area, was made of white plastic and was brightly illuminated; the adjoining smaller compartment was black and dark. Mice were placed in the dark compartment and allowed to move freely between the two chambers for 5 min. The number of transitions between the two compartments, time spent in each chamber, and latency to the first transition were recorded (Welch, J. M. et al., Nature 448, 894-900, 2007).
as §3

[5] = system: PLC-β4^−/− mice; experiment: Three anxiety behavioral assays after rivastigmine (overall); format: in vivo; details: 0.5 mg/kg i.p., 60 min after injection
Protocol: as §1, §2

[6] = system: hippocampus acetylcholine concentration; details: 0.5 mg/kg of rivastigmine; microdialysis; cited from earlier work

Compound: CCN(C)C(=O)Oc1cccc([C@H](C)N(C)C)c1 [rivastigmine]
- amplitude of the cholinergic theta rhythms ([1]; alert immobility, novel environment): restored to a level similar to that of the wild-type mice injected with saline
- amplitude of non-cholinergic type I theta rhythms ([1]; recorded during locomotion (walking) in new open field, vs saline-injected KO and WT mice): not significantly different among the three groups
- locomotion in the center of the open field [2]: wild-type levels of locomotion in the center of the open field
- thigmotaxis index [2]: reduced thigmotaxis index to the same levels as those in wild-type mice injected with saline
- time spent in the central sector of the open field [2]: levels comparable with those in wild-type mice injected with saline
- total locomotion activities in the open field [2]: wild-type levels of total locomotion activities
- entries into the open arms [3]: indistinguishable from wild-type mice injected with saline
- total entries into the closed and open arms ([3]; three groups): did not differ among the three groups
- time in the light chamber [4]: indistinguishable from that of wild-type mice injected with saline
- transitions between light and dark boxes [4]: indistinguishable from that of wild-type mice injected with saline
- increased anxiety phenotype in each of the three anxiety tests [5]: showed a reversal of the increased anxiety phenotype
- increase of hippocampus acetylcholine concentration [6]: about 100%
